Measured values published in patent US20240335429A1, “MOLECULAR GLUE AND SALL4 DEGRADER” (National University of Singapore, priority 2021, published 2024).

Columns and labels:
[1] = CellTiter-Glo viability assay, SALL4-low cell panel; type: cell-based, human; conditions: human, SNU-387, SNU-449, SNU-475 and H1299 cells (SALL4-low); SALL4-low cells, highest dose 30 μM, 72 h; read-out: cells remained viable
Description: (§1) Cells were plated in RPMI culture media (40 μL) in 384-well white, flat-bottom plates (Corning) and incubated at 37° C. in a humidified atmosphere of 5% CO2 overnight. The numbers of cells per well were 1,500 for SNU-398 and SNU-182, 750 for SNU-387, SNU-449, SNU-475 and SNU-423, and 1,000 for H661 and H1299. After overnight incubation, 10 μL of drug (1% DMSO in RPMI) at designed concentrations were added to the cells. The cells were then incubated for 16, 24, 48, 72, or 96 h at 37° C. in a humidified atmosphere of 5% CO2 before CellTiter-Glo reagent (10 μL) was dispensed to the wells. The cells were incubated at room temperature for a minimum of 10 min. After that, luminescence readings were recorded by a Microplate Reader (PHERAstar or Tecan Infinite M200 Pro) according to the manufacturer's instruction for measuring the luminescence.

[2] = tested on: SNU-387, SNU-449, SNU-475, and H1299 cells; assay: as above; type: cell-based, human; conditions: 72 h cell viability panel of HCC and lung cancer cell lines
Description: as §1

SALL4 (1-300aa) protein = target: T1, SALL4 (1-300aa) protein (Homo sapiens, UniProt Q9UJQ4); assay: Thermal shift assay (TSA) with Sypro Orange; type: binding
T1 construct: SALL4 (1-300aa) cloned into this vector was expressed with the N-terminal 6-His tags; His6 (pET His6 TEV LIC vector 2B-T, TEV site) (N); made in house; host or cells: E. coli BL21 (DE3)/pLysS
T1 sequence (Q9UJQ4 1-300): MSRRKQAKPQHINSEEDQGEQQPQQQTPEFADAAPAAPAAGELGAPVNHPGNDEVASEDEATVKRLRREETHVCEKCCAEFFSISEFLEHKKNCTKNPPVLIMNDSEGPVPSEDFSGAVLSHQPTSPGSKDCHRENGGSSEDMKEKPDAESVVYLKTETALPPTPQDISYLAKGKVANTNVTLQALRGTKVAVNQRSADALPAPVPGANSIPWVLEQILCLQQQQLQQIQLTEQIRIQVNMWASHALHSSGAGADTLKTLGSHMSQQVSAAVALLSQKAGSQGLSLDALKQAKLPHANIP
Description: A library of 50,000 small molecules from the Novartis Biomedical Research Institute (NIBR) was screened at 50 μM and 100 μM against 13.8 μM of purified SALL4 (1-300aa) protein in the buffer containing potassium phosphate (100 mM) and NaCl (100 mM) at pH 7. Screening assay was performed in 384-well thin wall white PCR plates using LightCyler® 480 Real-Time PCR System (Roche Applied Sciences). A 7-min run was started at 30° C. and ended at 90° C. Sypro Orange was used as the sensitive fluorescent dye for monitoring thermal protein denaturation. Hits were defined as compounds that can induce a change in protein melting points 3 times higher than the standard deviations of the apo-protein melting point from DMSO control.
To experimentally assess the stoichiometry of the binding between SALL4 (1-300aa) and QE-18-WG07, the inventors titrated 13.8 μM of purified recombinant SALL4 (1-300aa) protein with 12 increasing concentrations of QE-18-WG07 and evaluated the dose-response correlation in the ΔTm shift by following the protocol for TSA in Example 7.

SNU-182 cells = assay: CellTiter-Glo viability assay, SNU-182; type: cell-based; conditions: Homo sapiens, 72 h
Description: as §1

CRBN = target: T2, CRBN (Homo sapiens, UniProt Q96SW2); assay: Cellular Thermal Shift Assay (CETSA) in SNU-398 cell lysates; type: binding; conditions: from 51 to 56° C., read-out: overall thermal shift of CRBN
T2 construct: endogenous in cells; host or cells: SNU-398 cell lysate
Description: Cells were washed with cold PBS and harvested into 50 mL tubes and centrifuged at 1,200×g for 5 min. For cell lysis, cells were resuspended in 1× NP-40 lysis buffer containing 10 mM Tris-HCl (pH 7.4), 150 mM NaCl, 2.7 mM KCl and 0.4% NP-40, and rotated end-over-end at 4° C. for 30 min. The cell lysate was centrifuged at 20,000 rpm for 10 min at 4° C. and the supernatant was collected. The cell lysate was divided into two aliquots, with one aliquot being treated with QE-18-WG07, and the other aliquot with DMSO control. After specific incubation time at room temperature, the respective lysates were divided into smaller aliquots of 40 μL and heated individually at different temperatures (51-56° C.) for 3 min in a thermal cycler, followed by a 3-min cool-down at room temperature. The heated lysates were centrifuged at 15,000 rpm for 10 min at 4° C. to separate the soluble fractions from the precipitates. The supernatants were transferred to new microtubes and analyzed by SDS-PAGE, followed by western blot analysis described in Example 4. The integrated band intensities were quantified by ImageJ. The thermal curves were analyzed by nonlinear regression using Graph Pad Prism.

[3] = QE-18-WG07 0.0061 μM, 30 min incubation
[4] = QE-18-WG07 0.0122 μM, 30 min incubation
[5] = QE-18-WG07 0.0488 μM, 30 min incubation
[6] = QE-18-WG07 0.0977 μM, 30 min incubation
[7] = QE-18-WG07 0.1953 μM, 30 min incubation
[8] = QE-18-WG07 0.7813 μM, 30 min incubation
[9] = QE-18-WG07 1.5625 μM, 30 min incubation
[10] = QE-18-WG07 3.1250 μM, 30 min incubation
[11] = QE-18-WG07 6.2500 μM, 30 min incubation
[12] = QE-18-WG07 12.5000 μM, 30 min incubation
[13] = QE-18-WG07 25.0000 μM, 30 min incubation
[14] = QE-18-WG07 50.0000 μM, 30 min incubation

T2 sequence (Q96SW2 whole entry): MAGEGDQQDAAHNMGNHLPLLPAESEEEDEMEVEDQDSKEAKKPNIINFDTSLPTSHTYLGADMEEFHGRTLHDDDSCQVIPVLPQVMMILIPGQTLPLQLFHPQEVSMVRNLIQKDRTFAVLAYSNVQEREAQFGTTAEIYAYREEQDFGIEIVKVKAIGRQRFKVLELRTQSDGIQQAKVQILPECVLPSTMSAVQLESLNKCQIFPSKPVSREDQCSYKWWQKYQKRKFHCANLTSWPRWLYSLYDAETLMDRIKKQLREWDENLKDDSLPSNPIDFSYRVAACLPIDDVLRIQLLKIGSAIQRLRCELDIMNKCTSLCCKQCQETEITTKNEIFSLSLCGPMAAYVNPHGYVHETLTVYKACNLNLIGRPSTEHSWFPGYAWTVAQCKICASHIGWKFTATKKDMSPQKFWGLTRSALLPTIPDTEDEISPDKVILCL

In the case of `COc1ccccc1NC(=O)Nc1ccc([N+](=O)[O-])cc1O` [QE-18-WG07], the viability at 72 h, 30 μM [1] is reported as 30 to 60%, the “selectivity of anti-proliferative effect, SALL4-high over SALL4-low cancer cells” value [2] is reported as “up to 58 fold” and the “concentration at which ΔTm saturation occurs” value (SALL4 (1-300aa) protein; 13.8 μM SALL4 (1-300aa), 30 min incubation) is reported as ≥ 12.5 µM. The “SALL4 (1-300) Melting Temperature Shift (° C.) Rep 1” value (SALL4 (1-300aa) protein; [3]) was −0.357 °C, the “SALL4 (1-300) Melting Temperature Shift (° C.) Rep 2” value (SALL4 (1-300aa) protein; [3]) was −0.357 °C and the “SALL4 (1-300) Melting Temperature Shift (° C.) Rep 1” value (SALL4 (1-300aa) protein; [4]) was −0.267 °C. The “SALL4 (1-300) Melting Temperature Shift (° C.) Rep 2” value (SALL4 (1-300aa) protein; [4]) was −0.267 °C, the “SALL4 (1-300) Melting Temperature Shift (° C.) Rep 1” value (SALL4 (1-300aa) protein; [5]) was −0.077 °C and the “SALL4 (1-300) Melting Temperature Shift (° C.) Rep 2” value (SALL4 (1-300aa) protein; [5]) was −0.357 °C. For the same compound, the “SALL4 (1-300) Melting Temperature Shift (° C.) Rep 1” value (SALL4 (1-300aa) protein; [6]) was −0.357 °C, the “SALL4 (1-300) Melting Temperature Shift (° C.) Rep 2” value (SALL4 (1-300aa) protein; [6]) was −0.357 °C and the “SALL4 (1-300) Melting Temperature Shift (° C.) Rep 1” value (SALL4 (1-300aa) protein; [7]) was −0.267 °C. For the same compound, the “SALL4 (1-300) Melting Temperature Shift (° C.) Rep 2” value (SALL4 (1-300aa) protein; [7]) was −0.267 °C, the “SALL4 (1-300) Melting Temperature Shift (° C.) Rep 1” value (SALL4 (1-300aa) protein; [8]) was −0.167 °C and the “SALL4 (1-300) Melting Temperature Shift (° C.) Rep 2” value (SALL4 (1-300aa) protein; [8]) was −0.167 °C. For the same compound, the “SALL4 (1-300) Melting Temperature Shift (° C.) Rep 1” value (SALL4 (1-300aa) protein; [9]) was 0.503 °C, the “SALL4 (1-300) Melting Temperature Shift (° C.) Rep 2” value (SALL4 (1-300aa) protein; [9]) was 0.503 °C and the “SALL4 (1-300) Melting Temperature Shift (° C.) Rep 1” value (SALL4 (1-300aa) protein; [10]) was 0.413 °C. For the same compound, the “SALL4 (1-300) Melting Temperature Shift (° C.) Rep 2” value (SALL4 (1-300aa) protein; [10]) was 0.793 °C, the “SALL4 (1-300) Melting Temperature Shift (° C.) Rep 1” value (SALL4 (1-300aa) protein; [11]) was 0.703 °C and the “SALL4 (1-300) Melting Temperature Shift (° C.) Rep 2” value (SALL4 (1-300aa) protein; [11]) was 0.703 °C. The “SALL4 (1-300) Melting Temperature Shift (° C.) Rep 1” value (SALL4 (1-300aa) protein; [12]) was 1.373 °C, the “SALL4 (1-300) Melting Temperature Shift (° C.) Rep 2” value (SALL4 (1-300aa) protein; [12]) was 1.083 °C and the “SALL4 (1-300) Melting Temperature Shift (° C.) Rep 1” value (SALL4 (1-300aa) protein; [13]) was 1.273 °C. For the same compound, the “SALL4 (1-300) Melting Temperature Shift (° C.) Rep 2” value (SALL4 (1-300aa) protein; [13]) was 1.273 °C, the “SALL4 (1-300) Melting Temperature Shift (° C.) Rep 1” value (SALL4 (1-300aa) protein; [14]) was 1.273 °C and the “SALL4 (1-300) Melting Temperature Shift (° C.) Rep 2” value (SALL4 (1-300aa) protein; [14]) was 0.983 °C. For the same compound, the ΔTm at 100 µM (SALL4 (1-300aa) protein; SALL4(1-300) melting temperature shift, mean ± SD (n = 2), [compound] = 100 μM, 30 min) was 1.15 ± 0.01 °C, the “Thermal Shift Assay Type” value (SALL4 (1-300aa) protein; [compound] = 100 μM, 30 min) was “Positive shifter” and the Emax at 1 µM (SNU-182 cells; achieved at 1 μM, read-out: maximum growth inhibition Emax) was 90 to 100%. For the same compound, the IC50 (SNU-182 cells; read-out: IC50 of cell viability) was 951 nM and the ΔTm at 50 µM (CRBN) was ≤ 5 °C.
